Reference: patent publication US20060110456A1, “Method for biocidal and/or biostatic treatment and compositions therefor” (NATIONAL UNIVERSITY OF SINGAPORE, priority 2004, published 2006)
Counter-ions that a name gives are not always drawn. Like-named read-outs stand apart in the source and are kept apart here.

Assays:
[1] = tested on: marine bacteria; assay: Growth assay (absorbance, 96-well plates); format: cell-based, marine bacteria isolated from Singapore fouling communities; settings: 25 μg ml^−1
Protocol: The dried powder was re-suspended in sterile deionized water and made up to 2 mg ml^−1.
The same bacterial strains were used and cultured the same way as in disc inhibition assay. Cells were harvested by centrifugation at 300 rpm for 10 min. The supernatant was discarded and the pellet re-suspended using sterile seawater collected from St. John's island, Singapore. The concentration of bacterial cells was adjusted to an absorbance of approximately 0.6 using a spectrophotometer (Beckman DU530) at wavelength 600 nm.
The growth with response to the pharmaceuticals was assumed to be proportional to the absorbance of the bacteria. […] To each well 25 μl of each drug solution (concentration adjusted to 100 μg ml^−1) were pipetted into three wells followed by 10 μl of broth and 65 μl of sterile seawater. For wells that were to contain bacteria, 60 μl of sterile seawater was used instead. All wells used for growth studies were prepared in triplicate and inoculated with 5 μl of the bacterial suspension. Blanks consisting of the respective volumes of pharmaceutical with Marine Broth and distilled water, if needed, were prepared in triplicate and inoculated with 5 μl of sterile seawater.
The absorbance (A600) of each well was read in a plate reader (Sunrise Tecan Model F039300) immediately (time=0 hours) and after 1, 2, 3, 4, 20, 23 and 28 hours. Plates were incubated overnight inside a moistened airtight container.
Any changes in absorbance were plotted and compared with control. The mean absorbance (mean bac) from the bacteria was obtained by deducting the absorbance values of blank wells (containing seawater and broth only) from that for the control wells (containing bacteria in seawater and broth only). The absorbance arising from the drugs was obtained from the 0 hr reading for wells containing drugs and bacteria, minus the wells with drugs alone (mean “drug”). The growth assays were repeated three times.

[2] = tested on: marine bacteria (26 strains); assay: Disk inhibition assay; format: cell-based, marine bacteria isolated from Singapore fouling communities; settings: for zone of inhibition at 25 µg/disc: 25 μg per disc; for zone of inhibition at 50 µg/disc: 50 μg per disc
Outline: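 Tablets or capsule powders suspended in sterile water at 2 mg ml^−1 and loaded onto disks; antibiotic discs (Amp, Ery, Str, Tet) served as comparison. Disks placed on swabbed lawns on Marine Agar, incubated overnight in the dark at 30° C. Zone of clearing diameter measured by calipers; three replicates on three occasions.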

CNCCC(Oc1ccc(C(F)(F)F)cc1)c1ccccc1 (centres unmarked) [PZC, fluoxetine hydrochloride]
Number of strains with strongly inhibited growth ([1]; 25 strains of Table 5): 3 | Inhibition of bacterial growth ([1]; strain 1 (Rhodovulum)): 0 | Inhibition of bacterial growth ([1]; strain 2 (Erythrobacter)): + (+ denotes growth present but inhibited, p < 0.01) | Inhibition of bacterial growth ([1]; strain 3 (Erythrobacter)): + (+ denotes growth present but inhibited, p < 0.01) | Inhibition of bacterial growth ([1]; strain 4 (Bacillus)): 0 | Inhibition of bacterial growth ([1]; strain 6 (Vibrio)): 0 | Inhibition of bacterial growth ([1]; strain 7 (Vibrio)): + (+ denotes growth present but inhibited, p < 0.01) | Inhibition of bacterial growth ([1]; strain 8 (Bacillus)): + (+ denotes growth present but inhibited, p < 0.01) | Inhibition of bacterial growth ([1]; strain 9 (Bacillus)): + (+ denotes growth present but inhibited, p < 0.01) | Inhibition of bacterial growth ([1]; strain 10 (Halobacillus)): +++ (+++ denotes little or no growth, p < 0.001) | Inhibition of bacterial growth ([1]; strain 11 (Pseudomonas)): + (+ denotes growth present but inhibited, p < 0.01) | Inhibition of bacterial growth ([1]; strain 12 (Gordonia)): + (+ denotes growth present but inhibited, p < 0.01) | Inhibition of bacterial growth ([1]; strain 13 (Bacillus)): + (+ denotes growth present but inhibited, p < 0.01) | Inhibition of bacterial growth ([1]; strain 14 (Vibrio)): 0 | Inhibition of bacterial growth ([1]; strain 16 (Pseudoalteromonas)): 0 | Inhibition of bacterial growth ([1]; strain 17 (Gordonia)): +++ (+++ denotes little or no growth, p < 0.001) | Inhibition of bacterial growth ([1]; strain 18 (Microbacterium)): + (+ denotes growth present but inhibited, p < 0.01) | Inhibition of bacterial growth ([1]; strain 19 (Erythrobacter)): + (+ denotes growth present but inhibited, p < 0.01) | Inhibition of bacterial growth ([1]; strain 20): + (+ denotes growth present but inhibited, p < 0.01) | Inhibition of bacterial growth ([1]; strain 21): 0 | Inhibition of bacterial growth ([1]; strain 24): 0 | Inhibition of bacterial growth ([1]; strain 26): 0 | Inhibition of bacterial growth ([1]; strain 27): + (+ denotes growth present but inhibited, p < 0.01) | Inhibition of bacterial growth ([1]; strain 28): 0 | Inhibition of bacterial growth ([1]; strain 29): + (+ denotes growth present but inhibited, p < 0.01) | Inhibition of bacterial growth ([1]; strain 30): +++ (+++ denotes little or no growth, p < 0.001) | Activity against the three Vibrio strains tested [2]: exhibited activity against the three Vibrio strains tested | Antibiotic activity against marine bacteria [2]: strongest activity | Number of strains inhibited out of 26 strains [2]: 23 | Strains showing no inhibition (of 26) [2]: only strain 6 was not inhibited | Antibiotic activity against marine bacteria ([2]; crude rank, best (1) to worst (8)): 2 | zone of inhibition at 25 µg/disc ([2]; strain 1 (Rhodovulum)): < 5 mm | zone of inhibition at 50 µg/disc ([2]; strain 1 (Rhodovulum)): 5 to 9 mm | zone of inhibition at 25 µg/disc ([2]; strain 2 (Erythrobacter)): 10 to 19 mm | zone of inhibition at 50 µg/disc ([2]; strain 2 (Erythrobacter)): 10 to 19 mm | zone of inhibition at 25 µg/disc ([2]; strain 3 (Erythrobacter)): 10 to 19 mm | zone of inhibition at 50 µg/disc ([2]; strain 3 (Erythrobacter)): 10 to 19 mm | zone of inhibition at 25 µg/disc ([2]; strain 4 (Bacillus)): 10 to 19 mm | zone of inhibition at 50 µg/disc ([2]; strain 4 (Bacillus)): 20 to 29 mm | zone of inhibition at 25 µg/disc ([2]; strain 6 (Vibrio)): < 5 mm | zone of inhibition at 50 µg/disc ([2]; strain 6 (Vibrio)): < 5 mm | zone of inhibition at 25 µg/disc ([2]; strain 7 (Vibrio)): < 5 mm | zone of inhibition at 50 µg/disc ([2]; strain 7 (Vibrio)): 10 to 19 mm | zone of inhibition at 25 µg/disc ([2]; strain 8 (Bacillus)): 10 to 19 mm | zone of inhibition at 50 µg/disc ([2]; strain 8 (Bacillus)): 20 to 29 mm | zone of inhibition at 25 µg/disc ([2]; strain 9 (Bacillus)): 10 to 19 mm | zone of inhibition at 50 µg/disc ([2]; strain 9 (Bacillus)): 10 to 19 mm | zone of inhibition at 25 µg/disc ([2]; strain 10 (Halobacillus)): 10 to 19 mm | zone of inhibition at 50 µg/disc ([2]; strain 10 (Halobacillus)): 10 to 19 mm | zone of inhibition at 25 µg/disc ([2]; strain 11 (Pseudomonas)): 10 to 19 mm | zone of inhibition at 50 µg/disc ([2]; strain 11 (Pseudomonas)): 20 to 29 mm | zone of inhibition at 25 µg/disc ([2]; strain 12 (Gordonia)): 10 to 19 mm | zone of inhibition at 50 µg/disc ([2]; strain 12 (Gordonia)): 20 to 29 mm | zone of inhibition at 25 µg/disc ([2]; strain 13 (Bacillus)): 10 to 19 mm | zone of inhibition at 50 µg/disc ([2]; strain 13 (Bacillus)): 10 to 19 mm | zone of inhibition at 25 µg/disc ([2]; strain 14 (Vibrio)): 10 to 19 mm | zone of inhibition at 50 µg/disc ([2]; strain 14 (Vibrio)): 10 to 19 mm | zone of inhibition at 25 µg/disc ([2]; strain 16 (Pseudoalteromonas)): 5 to 9 mm | zone of inhibition at 50 µg/disc ([2]; strain 16 (Pseudoalteromonas)): 10 to 19 mm | zone of inhibition at 25 µg/disc ([2]; strain 17 (Gordonia)): 10 to 19 mm | zone of inhibition at 50 µg/disc ([2]; strain 17 (Gordonia)): 20 to 29 mm | zone of inhibition at 25 µg/disc ([2]; strain 18 (Microbacterium)): 10 to 19 mm | zone of inhibition at 50 µg/disc ([2]; strain 18 (Microbacterium)): 10 to 19 mm | zone of inhibition at 25 µg/disc ([2]; strain 19 (Erythrobacter)): 10 to 19 mm | zone of inhibition at 50 µg/disc ([2]; strain 19 (Erythrobacter)): 20 to 29 mm | zone of inhibition at 25 µg/disc ([2]; strain 20): 10 to 19 mm | zone of inhibition at 50 µg/disc ([2]; strain 20): 10 to 19 mm | zone of inhibition at 25 µg/disc ([2]; strain 21): 5 to 9 mm | zone of inhibition at 50 µg/disc ([2]; strain 21): 10 to 19 mm | zone of inhibition at 25 µg/disc ([2]; strain 22): 10 to 19 mm | zone of inhibition at 50 µg/disc ([2]; strain 22): 10 to 19 mm | zone of inhibition at 25 µg/disc ([2]; strain 24): 5 to 9 mm | zone of inhibition at 50 µg/disc ([2]; strain 24): 10 to 19 mm | zone of inhibition at 25 µg/disc ([2]; strain 26): 5 to 9 mm | zone of inhibition at 50 µg/disc ([2]; strain 26): 5 to 9 mm | zone of inhibition at 25 µg/disc ([2]; strain 27): 20 to 29 mm | zone of inhibition at 50 µg/disc ([2]; strain 27): 20 to 29 mm | zone of inhibition at 25 µg/disc ([2]; strain 28): 10 to 19 mm | zone of inhibition at 50 µg/disc ([2]; strain 28): 10 to 19 mm | zone of inhibition at 25 µg/disc ([2]; strain 29): 10 to 19 mm | zone of inhibition at 50 µg/disc ([2]; strain 29): 20 to 29 mm | zone of inhibition at 25 µg/disc ([2]; strain 30): 10 to 19 mm | zone of inhibition at 50 µg/disc ([2]; strain 30): 10 to 19 mm
